{"source": "ChEMBL document CHEMBL4627251", "about": "“Identification of potent pyrazole based APELIN receptor (APJ) agonists” (Bioorg Med Chem, 2020)"}
{"target": "T1, Type-1 angiotensin II receptor (Homo sapiens, UniProt P30556)", "T1 sequence (P30556 whole entry)": "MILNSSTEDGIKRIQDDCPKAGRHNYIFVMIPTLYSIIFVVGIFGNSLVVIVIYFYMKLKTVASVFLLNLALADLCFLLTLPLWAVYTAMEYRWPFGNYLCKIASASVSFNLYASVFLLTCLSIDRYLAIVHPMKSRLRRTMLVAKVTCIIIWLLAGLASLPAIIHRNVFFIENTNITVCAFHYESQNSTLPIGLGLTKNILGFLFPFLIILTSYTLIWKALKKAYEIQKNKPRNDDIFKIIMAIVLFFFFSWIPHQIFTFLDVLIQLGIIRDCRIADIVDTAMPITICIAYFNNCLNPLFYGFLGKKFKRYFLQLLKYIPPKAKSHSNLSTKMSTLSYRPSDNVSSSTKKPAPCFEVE", "experiment": "Agonist activity at human AGTR1 stably expressed in CHO cells assessed as increase in intracellular calcium mobilization measured at 1 sec intervals for 90 sec by calcium 5 dye based FLIPR assay", "type": "functional, cell-based", "units": {"EC50": "µM"}}
{"smiles": "CCC(=O)CNC(=O)[C@H](CCc1ccccc1)NC(=O)c1cc(-c2c(OC)cccc2OC)n(CC(C)C)n1", "EC50": "> 10"}
{"smiles": "CCCn1nc(C(=O)N[C@@H](CCC2CCCCC2)CC(=O)NC2CCC2)cc1-c1c(OC)cccc1OC", "EC50": "> 10"}
{"smiles": "COc1cccc(OC)c1-c1cc(C(=O)N[C@@H](CCC2CCCCC2)CC(=O)NC2CCC2)nn1C1CCCC1", "EC50": "> 10"}
{"smiles": "COc1cccc(OC)c1-c1cc(C(=O)N[C@@H](CCC2CCCCC2)CC(=O)NC2CCC2)nn1C1CCCCC1", "EC50": "> 10"}
{"smiles": "CCC(O)CNC(=O)C[C@H](CCC1CCCCC1)NC(=O)c1cc(-c2c(OC)cccc2OC)n(CC(C)C)n1", "note": "(some centres undefined)", "EC50": "> 10"}
{"smiles": "COc1cccc(OC)c1-c1cc(C(=O)N[C@@H](CCc2ccccc2)CC(=O)NC2CCC2)nn1CC(C)C", "EC50": "> 10"}
{"smiles": "CCC(=O)CNC(=O)C[C@H](CCC1CCCCC1)NC(=O)c1cc(-c2c(OC)cccc2OC)n(CC(C)C)n1", "EC50": "> 10"}
{"smiles": "COc1cccc(OC)c1-c1cc(C(=O)N[C@@H](CCC2CCCCC2)CC(=O)O)nn1-c1ccc(F)cc1", "EC50": "> 10"}
{"smiles": "COc1cccc(OC)c1-c1cc(C(=O)N[C@@H](CCC2CCCCC2)CC(=O)NC2CCC2)nn1CC(C)C", "EC50": "> 10"}
{"smiles": "CC[C@@H](O)CNC(=O)C[C@H](CCC1CCCCC1)NC(=O)c1cc(-c2c(OC)cccc2OC)n(CC(C)C)n1", "EC50": "> 10"}
{"smiles": "COC(=O)CN(C)C(=O)[C@H](CCc1ccccc1)NC(=O)c1cc(-c2c(OC)cccc2OC)n(CC(C)C)n1", "EC50": "> 10"}
{"target": "T2, Apelin receptor (Homo sapiens, UniProt P35414)", "T2 sequence (P35414 whole entry)": "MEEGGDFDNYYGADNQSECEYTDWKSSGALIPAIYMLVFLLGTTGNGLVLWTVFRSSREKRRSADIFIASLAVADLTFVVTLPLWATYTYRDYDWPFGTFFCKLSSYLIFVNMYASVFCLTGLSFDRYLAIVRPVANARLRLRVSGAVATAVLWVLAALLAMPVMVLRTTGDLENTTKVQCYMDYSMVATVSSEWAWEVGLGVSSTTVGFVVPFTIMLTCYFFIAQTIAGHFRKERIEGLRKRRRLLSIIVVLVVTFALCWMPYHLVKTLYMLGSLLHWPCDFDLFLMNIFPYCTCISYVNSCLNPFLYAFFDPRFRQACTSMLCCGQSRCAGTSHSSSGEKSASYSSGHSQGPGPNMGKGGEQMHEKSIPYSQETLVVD", "units": {"EC50": "µM"}, "description": "Agonist activity at human APJ receptor stably expressed in CHO cells assessed as inhibition of forskolin-induced cAMP accumulation measured after 30 mins by Eu-cAMP tracer based TR-FRET assay"}
{"smiles": "COc1cccc(OC)c1-c1cc(C(=O)N[C@@H](CCc2ccccc2)CC(=O)O)nn1CC(C)C", "EC50": "> 10"}
{"target": "T2, Apelin receptor", "remark": "another data set of the same source", "units": {"EC50": "µM"}, "description": "Agonist activity at human APJ receptor stably expressed in CHO cells co-expressing Galphaq16 assessed as increase in intracellular calcium mobilization measured at 1 sec intervals for 90 secs by calcium 5 dye based FLIPR assay"}
{"smiles": "COc1cccc(OC)c1-c1cc(C(=O)N[C@@H](CCc2ccccc2)CC(=O)O)nn1CC(C)C", "EC50": "> 10"}
{"target": "T2, Apelin receptor", "remark": "another data set of the same source", "units": {"EC50": "µM"}, "description": "Agonist activity at human APJ receptor stably expressed in CHOK1 cells assessed as induction of beta-arrestin 2 recruitment incubated for 90 mins by PathHunter assay"}
{"smiles": "COc1cccc(OC)c1-c1cc(C(=O)N[C@@H](CCc2ccccc2)CC(=O)O)nn1CC(C)C", "EC50": "> 10"}
